Test results: patent publication US10851083B2, “Benzoimidazoles as prolyl hydroxylase inhibitors” (Janssen Pharmaceutica NV, priority 2008, dated 2020)

What was measured:
[1] = test system: Hep-3B cells; assay: Cellular assay: EPO secretion in Hep-3B cells; assay type: cell-based, human; parameters: EPO secretion, % of control compound: dose or concentration left out as unconfirmed; details: 24 h, EPO secretion as percentage of control compound 7-[(4-Chloro-phenyl)-(5-methyl-isoxazol-3-ylamino)-methyl]-quinolin-8-ol; for EPO secretion, % of control compound: Homo sapiens, Hep3B, read-out: Cellular % EPO Stimulation
[2] = target: human PHD2181-417 (Homo sapiens (Human), UniProt Q9GZT9); assay: PHD2 enzyme activity assay ([14C]-succinic acid production); assay type: biochemical; details: PHD2181-417 polypeptide, HIF-1α peptide 10 μM, [5-14C]-2-oxoglutaric acid, 30 min pre-incubation, tested 10 μM to 3 nM; for IC50: read-out: Enzyme pIC50 (converted);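 for all read-outs here: reaction ran 10 min with compound in Tris pH 7.5 buffer with catalase, DTT and ascorbate, labelled succinate freed of leftover 2-oxoglutarate by DNP precipitation, then beta counted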
Chain of human PHD2181-417 (Q9GZT9 181-417): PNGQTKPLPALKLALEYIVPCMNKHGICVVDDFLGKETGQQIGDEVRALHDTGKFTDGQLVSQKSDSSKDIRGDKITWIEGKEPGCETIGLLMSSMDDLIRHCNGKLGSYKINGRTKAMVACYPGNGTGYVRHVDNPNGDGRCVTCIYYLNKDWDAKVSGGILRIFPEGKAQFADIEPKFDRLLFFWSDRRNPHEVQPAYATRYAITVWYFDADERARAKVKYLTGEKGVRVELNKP

| SMILES | EPO secretion, % of control compound [1] [%] | Enzyme pIC50 [2] | Cellular % EPO Stimulation ([1]; compound at 100 μM (10 μM or 100 μM)) [%] | IC50 [2] [µM] |
| --- | --- | --- | --- | --- |
| O=C(O)c1cnn(-c2nc3cc(SCC4CCCCC4)c(Cl)cc3[nH]2)c1 [Example 165, 1-(6-Chloro-5-cyclohexylmethylsulfanyl-1H-benzoimidazol-2-yl)-1H-pyrazole-4-carboxylic Acid] | 27.3 | 6.9 | – | – |
| CC[S+]([O-])c1cc2[nH]c(-n3cc(C(=O)O)cn3)nc2cc1Cl (stereo not drawn) [Example 95, 1-(5-Chloro-6-ethanesulfinyl-1H-benzoimidazol-2-yl)-1H-pyrazole-4-carboxylic Acid] | 46.3 | 7.2 | – | – |
| CCCS(=O)(=O)c1cc2[nH]c(-n3cc(C(=O)O)cn3)nc2cc1OC(F)(F)F [Example 106, 1-[6-(Propane-1-sulfonyl)-5-trifluoromethoxy-1H-benzoimidazol-2-yl]-1H-pyrazole-4-carboxylic Acid] | 124 | 7.5 | – | – |
| CCNc1cc2nc(-n3cc(C(=O)O)cn3)[nH]c2cc1Cl [Example 130, 1-(6-Chloro-5-ethylamino-1H-benzoimidazol-2-yl)-1H-pyrazole-4-carboxylic Acid] | 48 | 6.2 | – | – |
| Cc1cc(C)c(CS(=O)(=O)c2cc3nc(-n4cc(C(=O)O)cn4)[nH]c3cc2Cl)c(C)c1 [Example 90, 1-[6-Chloro-5-(2,4,6-trimethyl-phenylmethanesulfonyl)-1H-benzoimidazol-2-yl]-1H-pyrazole-4-carboxylic Acid] | 8.25 | 7.3 | – | – |
| O=C(O)c1cnn(-c2nc3cc([S+]([O-])c4ccc(Cl)cc4)c(Cl)cc3[nH]2)c1 (stereo not drawn) [Example 107] | 47.6 | 7.2 | – | – |
| CCS(=O)(=O)Nc1cc2nc(-n3cc(C(=O)O)cn3)[nH]c2cc1Cl [Example 137, 1-(6-Chloro-5-ethanesulfonylamino-1H-benzoimidazol-2-yl)-1H-pyrazole-4-carboxylic Acid] | 11 | 6.6 | – | – |
| O=C(O)c1cnn(-c2nc3cc(S(=O)(=O)Nc4ccccc4)c(Cl)cc3[nH]2)c1 [Example 186, 1-(6-Chloro-5-phenylsulfamoyl-1H-benzoimidazol-2-yl)-1H-pyrazole-4-carboxylic Acid] | 39.1 | 7.4 | – | – |
| O=C(O)c1cnn(-c2nc3c(F)cccc3[nH]2)c1 [Example 110, 1-(4-Fluoro-1H-benzoimidazol-2-yl)-1H-pyrazole-4-carboxylic Acid] | 45.9 | 6.2 | – | – |
| O=C(O)c1cnn(-c2nc3cc(S(=O)(=O)c4ccc(OC(F)(F)F)cc4)c(Cl)cc3[nH]2)c1 [Example 86, 1-[6-Chloro-5-(4-trifluoromethoxy-benzenesulfonyl)-1H-benzoimidazol-2-yl]-1H-pyrazole-4-carboxylic Acid] | 48.9 | 7.3 | – | – |
| CCCNc1cc2nc(-n3cc(C(=O)O)cn3)[nH]c2cc1Cl [Example 131, 1-(6-Chloro-5-propylamino-1H-benzoimidazol-2-yl)-1H-pyrazole-4-carboxylic Acid] | 89 | 6.5 | – | – |
| CS(=O)(=O)Nc1cc2nc(-n3cc(C(=O)O)cn3)[nH]c2cc1Cl [Example 136, 1-(6-Chloro-5-methanesulfonylamino-1H-benzoimidazol-2-yl)-1H-pyrazole-4-carboxylic Acid] | 9 | 6.8 | – | – |
| O=C(O)c1cnn(-c2nc3cc(Oc4ccccc4)c(Cl)cc3[nH]2)c1 [Example 57, 1-(6-Chloro-5-phenoxy-1H-benzoimidazol-2-yl)-1H-pyrazole-4-carboxylic Acid] | 55 | 6.9 | – | – |
| O=C(O)c1cnn(-c2nc3cc(NS(=O)(=O)C4CC4)c(Cl)cc3[nH]2)c1 [Example 135, 1-(6-Chloro-5-cyclopropanesulfonylamino-1H-benzoimidazol-2-yl)-1H-pyrazole-4-carboxylic Acid] | 17 | 6.8 | – | – |
| Cc1cc(Cl)cc2[nH]c(-n3cc(C(=O)O)cn3)nc12 [Example 33, 1-(6-Chloro-4-methyl-1H-benzoimidazol-2-yl)-1H-pyrazole-4-carboxylic Acid] | 13.4 | 6 | – | – |
| O=C(CN1CCCCC1)Nc1cc2nc(-n3cc(C(=O)O)cn3)[nH]c2cc1Cl [Example 143, 1-[6-Chloro-5-(2-piperidin-1-yl-acetylamino)-1H-benzoimidazol-2-yl]-1H-pyrazole-4-carboxylic Acid] | 20 | 6.2 | – | – |
| CSc1cc2[nH]c(-n3cc(C(=O)O)cn3)nc2cc1Cl [Example 75, 1-(5-Chloro-6-methylsulfanyl-1H-benzoimidazol-2-yl)-1H-pyrazole-4-carboxylic Acid] | 106 | 7 | – | – |

| SMILES | EPO secretion, % of control compound [1] [%] | Enzyme pIC50 [2] | Cellular % EPO Stimulation ([1]; compound at 100 μM (10 μM or 100 μM)) [%] | IC50 [2] [µM] |
| --- | --- | --- | --- | --- |
| CCCSc1cc2[nH]c(-n3cc(C(=O)O)cn3)nc2cc1Cl [Example 78, 1-(5-Chloro-6-propylsulfanyl-1H-benzoimidazol-2-yl)-1H-pyrazole-4-carboxylic Acid] | 125 | 7 | – | – |
| Cc1nn(-c2nc3cc(Cl)c(Cl)cc3[nH]2)c(C)c1C(=O)O [Example 22, 1-(5,6-Dichloro-1H-benzoimidazol-2-yl)-3,5-dimethyl-1H-pyrazole-4-carboxylic Acid] | – | – | 0.47 | > 100 |
| O=C(O)c1cnn(-c2nc3cc(Br)cc(F)c3[nH]2)c1 [Example 48, 1-(5-Bromo-7-fluoro-1H-benzoimidazol-2-yl)-1H-pyrazole-4-carboxylic Acid] | 44 | 6.3 | – | – |
| CCOc1cc2[nH]c(-n3cc(C(=O)O)cn3)nc2cc1F [Example 119, 1-(6-Ethoxy-5-fluoro-1H-benzoimidazol-2-yl)-1H-pyrazole-4-carboxylic Acid] | 69 | 6.5 | – | – |
| O=C(O)c1cnn(-c2nc3cc(Oc4ccc(Cl)cc4)c(OC(F)(F)F)cc3[nH]2)c1 [Example 52, 1-[5-(4-Chloro-phenoxy)-6-trifluoromethoxy-1H-benzoimidazol-2-yl]-1H-pyrazole-4-carboxylic Acid] | 21.6 | 7.4 | – | – |
| O=C(O)c1cnn(-c2nc3c(Br)cc(Cl)cc3[nH]2)c1 [Example 37, 1-(4-Bromo-6-chloro-1H-benzoimidazol-2-yl)-1H-pyrazole-4-carboxylic Acid] | 34 | 6.6 | – | – |
| O=C(O)c1cnn(-c2nc3cc(C(=O)Nc4ccccc4)ccc3[nH]2)c1 [Example 120, 1-(5-Phenylcarbamoyl-1H-benzoimidazol-2-yl)-1H-pyrazole-4-carboxylic Acid] | 21.1 | 6.9 | – | – |
| CCCS(=O)(=O)c1cc2[nH]c(-n3cc(C(=O)O)cn3)nc2cc1Cl [Example 102, 1-[5-Chloro-6-(propane-1-sulfonyl)-1H-benzoimidazol-2-yl]-1H-pyrazole-4-carboxylic Acid] | 54.9 | 7.5 | – | – |
| CS(=O)(=O)c1ccc2nc(-n3cc(C(=O)O)cn3)[nH]c2c1 [Example 38, 1-(6-Methanesulfonyl-1H-benzoimidazol-2-yl)-1H-pyrazole-4-carboxylic Acid] | 40.9 | 7.1 | – | – |
| O=C(O)c1cnn(-c2nc3cc(SCc4cccc(Cl)c4)c(Cl)cc3[nH]2)c1 [Example 164, 1-[6-Chloro-5-(3-chloro-benzylsulfanyl)-1H-benzoimidazol-2-yl]-1H-pyrazole-4-carboxylic Acid] | 27.4 | 6.6 | – | – |
| O=C(O)c1cnn(-c2nc3cc(F)c(Br)cc3[nH]2)c1 [Example 109, 1-(6-Bromo-5-fluoro-1H-benzoimidazol-2-yl)-1H-pyrazole-4-carboxylic Acid] | 99 | 6.7 | – | – |
| O=C(O)c1cnn(-c2nc3cc(S(=O)(=O)CCc4ccccc4)c(Cl)cc3[nH]2)c1 [Example 94, 1-[6-Chloro-5-(2-phenyl-ethanesulfonyl)-1H-benzoimidazol-2-yl]-1H-pyrazole-4-carboxylic Acid] | 65.1 | 7.4 | – | – |
| N#Cc1ccccc1-c1ccc(CSc2cc3nc(-n4cc(C(=O)O)cn4)[nH]c3cc2Cl)cc1 [Example 172, 1-[6-Chloro-5-(2′-cyano-biphenyl-4-ylmethylsulfanyl)-1H-benzoimidazol-2-yl]-1H-pyrazole-4-carboxylic Acid] | – | 7.5 | – | – |
| CC(C)S(=O)(=O)c1cc2[nH]c(-n3cc(C(=O)O)cn3)nc2cc1C(F)(F)F [Example 103, 1-[6-(Propane-2-sulfonyl)-5-trifluoromethyl-1H-benzoimidazol-2-yl]-1H-pyrazole-4-carboxylic Acid] | – | 7.4 | – | – |
| O=C(O)c1cnn(-c2nc3cc(S(=O)(=O)Cc4ccc(C(F)(F)F)cc4)c(Cl)cc3[nH]2)c1 [Example 179, 1-[6-Chloro-5-(4-trifluoromethyl-phenylmethanesulfonyl)-1H-benzoimidazol-2-yl]-1H-pyrazole-4-carboxylic Acid] | – | 7.7 | – | – |
| CC(C)Sc1cc2[nH]c(-n3cc(C(=O)O)cn3)nc2cc1OC(F)(F)F [Example 80, 1-(6-Isopropylsulfanyl-5-trifluoromethoxy-1H-benzoimidazol-2-yl)-1H-pyrazole-4-carboxylic Acid] | – | 7 | – | – |
| Cc1ccc(CSc2cc3nc(-n4cc(C(=O)O)cn4)[nH]c3cc2Cl)cc1 [Example 169, 1-[6-Chloro-5-(4-methyl-benzylsulfanyl)-1H-benzoimidazol-2-yl]-1H-pyrazole-4-carboxylic Acid] | – | – | – | 0.2 |
